Test results: patent US20100152434A1, “Protein Kinase-binding Nucleosides and Associated Methods” (priority 2007, published 2010)
Where two headings read alike, the source gives them in different places.

Assays:
EKVX [1] = system: EKVX
SK-OV-3 [2] = assay: cells; conditions: Homo sapiens, SK-OV-3, 48 h
KM12 = assay: cells; conditions: Homo sapiens, KM12, 48 h
MDA-MB-231/ATCC = assay: cells; conditions: Homo sapiens, MDA-MB-231, 48 h
HCC-2998 = conditions: HCC-2998
SK-OV-3 [3] = system: SK-OV-3
A549/ATCC = assay: cells; conditions: Homo sapiens, A549, 48 h
COLO 205 = assay: cells; conditions: Homo sapiens, COLO 205, 48 h
HOP-62 = conditions: HOP-62
UACC-257 = assay: cells; conditions: Homo sapiens, UACC-257, 48 h
788-0 = conditions: 788-0
HCT-116 = assay: cells; conditions: Homo sapiens, HCT-116, 48 h
NCI-H23 = assay: cells; conditions: Homo sapiens, NCI-H23, 48 h
U251 = assay: cells; conditions: Homo sapiens, U-251, 48 h
EKVX [4] = assay: cells; conditions: Homo sapiens, 48 h
IGROV1 = assay: cells; conditions: Homo sapiens, IGROV-1, 48 h
[5] = Log10 Concentration −4.0, Molar
[6] = Log10 Concentration −5.0, Molar
[7] = Log10 Concentration −6.0, Molar
[8] = Log10 Concentration −7.0, Molar
[9] = Log10 Concentration −8.0, Molar

CCOC(=O)C[C@@H]1C(O[Si](C)(C)C(C)(C)C)[C@H](n2cnc3c(NC(=O)Nc4ccccc4)ncnc32)O[C@@H]1CNC(=O)NC (stereo partly shown) [Compound 10]
TGI (EKVX [1]; 48 h): >1.00E−4 Molar | Percent Growth (EKVX [1]; [5]): 42% | Percent Growth (EKVX [1]; [6]): 53% | Percent Growth (EKVX [1]; [7]): 91% | Percent Growth (EKVX [1]; [8]): 90% | Percent Growth (EKVX [1]; [9]): 92% | TGI (SN12C; 48 h): >1.00E−4 Molar | Percent Growth (SN12C; [5]): 11% | Percent Growth (SN12C; [6]): 48% | Percent Growth (SN12C; [7]): 103% | Percent Growth (SN12C; [8]): 101% | Percent Growth (SN12C; [9]): 101% | TGI (SF-295; 48 h): >1.00E−4 Molar | Percent Growth (SF-295; [5]): 24% | Percent Growth (SF-295; [6]): 38% | Percent Growth (SF-295; [7]): 88% | Percent Growth (SF-295; [8]): 91% | Percent Growth (SF-295; [9]): 91% | TGI (LOX IMVI; 48 h): >1.00E−4 Molar | Percent Growth (LOX IMVI; [5]): 4% | Percent Growth (LOX IMVI; [6]): 35% | Percent Growth (LOX IMVI; [7]): 93% | Percent Growth (LOX IMVI; [8]): 97% | Percent Growth (LOX IMVI; [9]): 97% | TGI (SF-268; 48 h): 2.70E−5 Molar | Percent Growth (SF-268; [5]): −53% | Percent Growth (SF-268; [6]): 40% | Percent Growth (SF-268; [7]): 93% | Percent Growth (SF-268; [8]): 103% | Percent Growth (SF-268; [9]): 102% | GI50 (SK-OV-3 [2]): 21 µM | CC50 (SK-OV-3 [2]; read-out: LC50): > 100 µM | GI50 (KM12): 3.95 µM | CC50 (KM12; read-out: LC50): > 100 µM | GI50 (MDA-MB-231/ATCC): 3.96 µM | CC50 (MDA-MB-231/ATCC; read-out: LC50): > 100 µM | TGI (HCC-2998; 48 h): >1.00E−4 Molar | Percent Growth (HCC-2998; [5]): 62% | Percent Growth (HCC-2998; [6]): 69% | Percent Growth (HCC-2998; [7]): 93% | Percent Growth (HCC-2998; [8]): 96% | Percent Growth (HCC-2998; [9]): 101% | TGI (SK-MEL-2; 48 h): 3.31E−5 Molar | Percent Growth (SK-MEL-2; [5]): −30% | Percent Growth (SK-MEL-2; [6]): 32% | Percent Growth (SK-MEL-2; [7]): 99% | Percent Growth (SK-MEL-2; [8]): 94% | Percent Growth (SK-MEL-2; [9]): 102% | TGI (BT-549; 48 h): >1.00E−4 Molar | Percent Growth (BT-549; [5]): 51% | Percent Growth (BT-549; [6]): 67% | Percent Growth (BT-549; [7]): 110% | Percent Growth (BT-549; [8]): 109% | Percent Growth (BT-549; [9]): 104% | TGI (SK-OV-3 [3]; 48 h): >1.00E−4 Molar | Percent Growth (SK-OV-3 [3]; [5]): 16% | Percent Growth (SK-OV-3 [3]; [6]): 66% | Percent Growth (SK-OV-3 [3]; [7]): 90% | Percent Growth (SK-OV-3 [3]; [8]): 96% | Percent Growth (SK-OV-3 [3]; [9]): 96% | TGI (SNB-75; 48 h): >1.00E−4 Molar | Percent Growth (SNB-75; [5]): 22% | Percent Growth (SNB-75; [6]): 32% | Percent Growth (SNB-75; [7]): 85% | Percent Growth (SNB-75; [8]): 90% | Percent Growth (SNB-75; [9]): 92% | GI50 (A549/ATCC): 4.18 µM | CC50 (A549/ATCC; read-out: LC50): 79.1 µM | GI50 (COLO 205): 3.84 µM | CC50 (COLO 205; read-out: LC50): > 100 µM | TGI (HOP-62; 48 h): 2.64E−5 Molar | Percent Growth (HOP-62; [5]): −65% | Percent Growth (HOP-62; [6]): 48% | Percent Growth (HOP-62; [7]): 97% | Percent Growth (HOP-62; [8]): 92% | Percent Growth (HOP-62; [9]): 99% | GI50 (UACC-257): 5.68 µM | CC50 (UACC-257; read-out: LC50): > 100 µM | TGI (788-0; 48 h): 5.21E−8 Molar | Percent Growth (788-0; [5]): −97% | Percent Growth (788-0; [6]): −34% | Percent Growth (788-0; [7]): 86% | Percent Growth (788-0; [8]): 83% | Percent Growth (788-0; [9]): 92% | GI50 (HCT-116): 3.2 µM | CC50 (HCT-116; read-out: LC50): 45.6 µM | GI50 (NCI-H23): 33.3 µM | CC50 (NCI-H23; read-out: LC50): > 100 µM | GI50 (U251): 4.69 µM | CC50 (U251; read-out: LC50): 76 µM | TGI (MALME-3M; 48 h): >1.00E−4 Molar | Percent Growth (MALME-3M; [5]): 17% | Percent Growth (MALME-3M; [6]): 50% | Percent Growth (MALME-3M; [7]): 92% | Percent Growth (MALME-3M; [8]): 95% | Percent Growth (MALME-3M; [9]): 104% | TGI (A498; 48 h): 1.71E−5 Molar | Percent Growth (A498; [5]): −41% | Percent Growth (A498; [6]): 13% | Percent Growth (A498; [7]): 91% | Percent Growth (A498; [8]): 92% | Percent Growth (A498; [9]): 95% | GI50 (EKVX [4]): 17.7 µM | CC50 (EKVX [4]; read-out: LC50): > 100 µM | GI50 (IGROV1): 3.85 µM | CC50 (IGROV1; read-out: LC50): 79.2 µM
